Test results published in patent publication US20100056497A1, “AMIDE DERIVATIVE” (DAINIPPON SUMITOMO PHARMA CO., LTD, priority 2007, published 2010).
Counter-ions that a name gives are not always drawn.

Key:
[1] = tested on: plasma renin activity / blood pressure; conditions: clinical test in patients with hypertension; cited from earlier work
Recombinant human renin = biological target: T1, Recombinant human renin (Homo sapiens, UniProt P00797); experiment: In vitro renin inhibitory activity assay (fluorescence, FRET peptide substrate); format: biochemical; conditions: 37° C., one hour, substrate 4 μM, pH 7.4
T1 sequence (P00797 67-406): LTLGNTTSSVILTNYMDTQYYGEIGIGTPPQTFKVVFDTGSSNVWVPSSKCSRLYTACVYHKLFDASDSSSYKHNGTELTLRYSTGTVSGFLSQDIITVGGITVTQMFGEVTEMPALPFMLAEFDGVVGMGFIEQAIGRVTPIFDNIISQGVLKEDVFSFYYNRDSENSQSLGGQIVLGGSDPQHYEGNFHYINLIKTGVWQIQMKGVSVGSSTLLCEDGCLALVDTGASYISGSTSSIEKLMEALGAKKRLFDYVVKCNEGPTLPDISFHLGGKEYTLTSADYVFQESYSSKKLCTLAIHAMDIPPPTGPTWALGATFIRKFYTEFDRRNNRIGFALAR
Method: In Vitro Renin Inhibitory Activity Assay
Recombinant human renin (50 ng) was reacted in 0.1M BEPES buffer (pH 7.4) containing 0.1M NaCl, 1 mM EDTA and 0.1 mg/mL BSA together with a substrate and a test compound at 37° C. for one hour. As the substrate, Arg-Glu(EDANS)-Ile-His-Pro-Phe-His-Leu-Val-Ile-His-Thr-Lys(DABCYL)-Arg or DABCYL-γ-Abu-Ile-His-Pro-Phe-His-Leu-Val-Ile-His-Thr-EDANS was added in such an amount so that the final concentration thereof became 4 μM. The elevated fluorescence intensity at the exciting wavelength 340 nm and the fluorescence wavelength 500 nm was measured by a fluorescence plate reader. The concentration of a test compound to be needed to inhibit an enzyme activity in the presence of a test compound in plural concentrations by 50% was calculated as an IC50 value.
The amino acid sequence disclosed in Seq ID:1 is an amino acid sequence used in the renin inhibitory activity assay.
The amino acid sequence disclosed in Seq ID:2 is an amino acid sequence used in the renin inhibitory activity assay.

IC50 (Recombinant human renin) [nM] | Compound | hypotensive activity [1] | plasma renin activity [1]
1.3 | COCCCOc1cc(C(=O)N(C(C)C)[C@@H]2CC[C@H](CCN(C(=O)Cc3cccc(NS(C)(=O)=O)c3)C3CC3)NC2)ccc1OC [Example 81, N-((3R,6R)-6-{2-[Cyclopropyl({3-[(methylsulfonyl)amino]phenyl}acetyl)amino]-ethyl}piperidin-3-yl)-N-isopropyl-4-methoxy-3-(3-methoxypropoxy)benzamide trifluoroacetate] |  | 
4.6 | COCCCOc1cc(C(=O)N(C(C)C)[C@@H]2CC[C@H](CCN(C(=O)Cc3ccccc3OC)C3CC3)NC2)ccc1OC [Example 73, N-[(3R,6R)-6-(2-{Cyclopropyl[(2-methoxyphenyl)acetyl]amino}ethyl)piperidin-3-yl]-N-isopropyl-4-methoxy-3-(3-methoxypropoxy)benzamide trifluoroacetate] |  | 
420 | CCCN(CC1CC1)C(=O)C[C@H]1CC[C@@H](N(C(=O)c2ccc(OC)c(OCCCOC)c2)C(C)C)CN1 (racemic) [Example 20, N-((rac.)-(3R,6R)-6-{2-[(Cyclopropylmethyl)(propyl)amino]-2-oxoethyl}piperidin-3-yl)-N-isopropyl-4-methoxy-3-(3-methoxypropoxy)benzamide hydrochloride] |  | 
27.9 | COCCCOc1cc(C(=O)N(C(C)C)[C@@H]2CC[C@H](CCN(C(=O)CC(C)(C)C(N)=O)C3CC3)NC2)ccc1OC [Example 69, N^4-Cyclopropyl-N^4-[2-((2R,5R)-5-{isopropyl[4-methoxy-3-(3-methoxypropoxy)-benzoyl]amino}piperidin-2-yl)ethyl]-2,2-dimethylsuccinamide trifluoroacetate] |  | 

Further lines, the compound ahead of its results:

Compound | IC50 (Recombinant human renin) [nM] | hypotensive activity [1] | plasma renin activity [1]
COCCCOc1cc(C[C@@H](C[C@H](N)[C@@H](O)C[C@H](C(=O)NCC(C)(C)C(N)=O)C(C)C)C(C)C)ccc1OC [aliskiren] |  | excellent hypotensive activity comparable to other RA system inhibitors | significantly inhibits plasma renin activity
COCCCOc1cc(C(=O)N(C(C)C)[C@H]2CNC[C@@H](COc3cccc(Oc4ccccc4)c3)C2)ccc1OC (racemic) [Example 49, N-Isopropyl-4-methoxy-3-(3-methoxypropoxy)-N-{(rac.)-(3R,5S)-5-[(3-phenoxy-phenoxy)methyl]piperidin-3-yl}benzamide hydrochloride] | 740 |  | 
COCCCOc1cc(C(=O)N(C(C)C)[C@H]2CNCC[C@@H]2c2ccccc2)ccc1OC (racemic) [Example 45, N-Isopropyl-4-methoxy-3-(3-methoxypropoxy)-N-[(rac.)-(3R,4R)-4-phenylpiperidin-3-yl]benzamide hydrochloride] | 410 |  | 
COCCCOc1cc(C(=O)N(C(C)C)[C@H]2CNC[C@@H](CNC(=O)OCc3ccccc3)C2)ccc1OC (racemic) [Example 43, Benzyl [((rac.)-(3S,5R)-5-{isopropyl[4-methoxy-3-(3-methoxypropoxy)benzoyl]-amino}piperidin-3-yl)methyl]carbamate hydrochloride] | 770 |  | 
COCCCOc1cc(C(=O)N(C(C)C)[C@H]2CNC[C@H](COC(=O)NC(C)C)C2)ccc1OC (racemic) [Example 57, ((rac.)-(3R,5R)-5-{Isopropyl[4-methoxy-3-(3-methoxypropoxy)benzoyl]amino}-piperidin-3-yl)methyl isopropylcarbamate hydrochloride] | 830 |  | 
